In general, pIC50 refers to −log10 of the IC50, conventionally taken in molar units. The term melting point denotes the temperature, or range, at which the solid turns liquid. A word on the inhibition: it is the drop in the measured response relative to a control, in per cent.

pIC50: −log10 of the molar value.

In one series the test system is sodium channel. Description: Guanidine influx assay (14C-guanidine radiotracer flux, in vitro). It is filed as cell-based, human or rat. To be noted: guanidine influx assay using a known cell line that expresses a sodium channel. The method in brief: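 Cells (human/rat Nav, endogenous or recombinant), ~100,000/well, 20-24 h 37 °C/5% CO2. Wash LNHBSS (150 mM choline Cl, HEPES, glucose). Add cpd + aconitine/14C-guanidine mix, RT. Wash, dry, scintillation count. IC50: 4-PL fit; selectivity as IC50 ratio vs reference channel, e.g. Nav1.5.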

In another series the target is CYP3A4 (Homo sapiens, UniProt P08684). The series is described as follows: Cytochrome P450 (CYP450) Inhibition Assay, CYP3A4 (Vivid fluorescence, BOMCC substrate). To be noted: human, P450 Baculosomes (recombinant CYP3A4), probe BOMCC (Vivid substrate).
Sequence of CYP3A4 (P08684 whole entry): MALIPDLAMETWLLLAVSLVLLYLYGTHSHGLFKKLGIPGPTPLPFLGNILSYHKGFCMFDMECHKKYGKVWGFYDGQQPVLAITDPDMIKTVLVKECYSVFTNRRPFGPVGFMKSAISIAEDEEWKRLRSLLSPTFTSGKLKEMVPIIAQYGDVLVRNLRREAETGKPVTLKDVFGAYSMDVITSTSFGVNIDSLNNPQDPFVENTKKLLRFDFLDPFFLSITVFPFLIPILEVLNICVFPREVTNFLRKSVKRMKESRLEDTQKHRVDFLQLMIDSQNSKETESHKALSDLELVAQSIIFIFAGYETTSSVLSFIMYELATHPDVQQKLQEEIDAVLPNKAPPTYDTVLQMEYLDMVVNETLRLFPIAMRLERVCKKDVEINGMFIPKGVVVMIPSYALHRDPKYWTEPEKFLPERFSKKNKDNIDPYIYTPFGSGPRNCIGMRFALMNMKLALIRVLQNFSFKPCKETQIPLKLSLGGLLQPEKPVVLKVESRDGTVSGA

In the case of `COc1cc2c(cc1C#N)C1(CO2)C(=O)N(Cc2ccccn2)c2ccccc21` (stereo not drawn) [Example 9.47, 6-methoxy-2′-oxo-1′-(pyridin-2-ylmethyl)-1′,2′-dihydrospiro[1-benzofuran-3,3′-indole]-5-carbonitrile], the melting point fell in the range of 187 to 189 °C. Further, in the series on sodium channel (activity level class), the negative-log IC50 (pIC50) is 5.00 to 6.00. Besides, the inhibition at 10 µM at CYP3A4 was more than 50%.
For `N#Cc1cc2c(cc1F)OCC21C(=O)N(Cc2ccccn2)c2ccccc21` (stereo not drawn) [Example 9.48, 6-fluoro-2′-oxo-1′-(pyridin-2-ylmethyl)-1′,2′-dihydrospiro[1-benzofuran-3,3′-indole]-5-carbonitrile] the same measures were 108 to 109 °C, 5.00 to 6.00 and more than 50%.
`N#Cc1cc2c(cc1F)OCC21C(=O)N(Cc2ncccc2C(F)(F)F)c2ccccc21` (stereo not drawn) [Example 9.51, 6-fluoro-2′-oxo-1′-{[3-(trifluoromethyl)pyridin-2-yl]methyl}-1′,2′-dihydrospiro[1-benzofuran-3,3′-indole]-5-carbonitrile] yielded a melting point of 209 to 211 °C. The pIC50 in the series on sodium channel was 5.00 to 6.00. In addition, the inhibition at 10 µM on CYP3A4 is less than 50%.
`COC(=O)c1cccc(CN2C(=O)C3(COc4cc5c(cc43)OCCO5)c3ccccc32)c1` (stereo not drawn) [Example 9.53, methyl 3-[(2′-oxo-2,3-dihydrospiro[furo[2,3-g][1,4]benzodioxine-8,3′-indol]-1′(2′H)-yl)methyl]benzoate] returned a melting point of 89 to 97 °C. In addition, in the series on sodium channel, the pIC50 was 7.00 to 9.00. Also, the inhibition at 10 µM at CYP3A4 is more than 50%.
For `Cc1noc2cc3c(cc12)C1(CO3)C(=O)N(CCC(C)C)c2ccccc21` (stereo not drawn) [Example 9.55, 3-methyl-1′-(3-methylbutyl)spiro[furo[3,2-f][1,2]benzisoxazole-5,3′-indol]-2′(1′H)-one] the same measures were 135 to 138 °C, 7.00 to 9.00 and more than 50%.
For `Cc1noc2cc3c(cc12)C1(CO3)C(=O)N(Cc2cnccn2)c2ccccc21` (stereo not drawn) [Example 9.56, 3-methyl-1′-(pyrazin-2-ylmethyl)spiro[furo[3,2-f][1,2]benzisoxazole-5,3′-indol]-2′(1′H)-one] the same measures were 170 to 173 °C, 7.00 to 9.00 and less than 50%.
For `Cc1noc2cc3c(cc12)C1(CO3)C(=O)N(Cc2ncccc2F)c2ccccc21` (stereo not drawn) [Example 9.57, 1′-[(3-fluoropyridin-2-yl)methyl]-3-methylspiro[furo[3,2-f][1,2]benzisoxazole-5,3′-indol]-2′(1′H)-one] the same measures were 167 to 169 °C, 6.00 to 7.00 and less than 50%.
On to `COC(=O)c1coc(CN2C(=O)C3(COc4cc5onc(C)c5cc43)c3ccccc32)n1` (stereo not drawn) [Example 9.58, methyl 2-[(3-methyl-2′-oxospiro[furo[3,2-f][1,2]benzisoxazole-5,3′-indol]-1′(2′H)-yl)methyl]-1,3-oxazole-4-carboxylate], for which the melting point lay in the range of 148 to 152 °C. In the series on sodium channel, the pIC50 was 6.00 to 7.00. Also, the inhibition at 10 µM at CYP3A4 is less than 50%.
Consider `COC(=O)c1ccc(CN2C(=O)C3(COc4cc5c(cc43)OCCO5)c3ccccc32)cc1` (stereo not drawn) [Example 9.59, methyl 4-[(2′-oxo-2,3-dihydrospiro[furo[2,3-g][1,4]benzodioxine-8,3′-indol]-1′(2′H)-yl)methyl]benzoate], for which the melting point was 167 to 169 °C. Moreover, in the series with sodium channel, the pIC50 was 7.00 to 9.00. Besides, the inhibition at 10 µM at CYP3A4 was less than 50%.
Molecule `O=C1N(CC2CN(Cc3ccccc3)CCO2)c2ccccc2C12COc1cc3c(cc12)OCCO3` (stereo not drawn) [Example 9.60, 1′-[(4-benzylmorpholin-2-yl)methyl]-2,3-dihydrospiro[furo[2,3-g][1,4]benzodioxine-8,3′-indol]-2′(1′H)-one] had a melting point of 88 to 100 °C. Besides, in the series with sodium channel, the negative-log IC50 (pIC50) was 6.00 to 7.00. On CYP3A4, the inhibition at 10 µM is more than 50%.

Source of the values: US8263606B2 (Xenon Pharmaceuticals Inc., priority 2008, dated 2012).
